From the Deep4Chem optical property database
Each block holds one molecule with its values, some of them ahead of it.

Assay: photoluminescence quantum yield (fraction); solvent given as SMILES

SMILES: CCn1c2ccccc2c2cc(-c3cc(-c4ccc5c(c4)c4ccccc4n5CC)nc(N4CCCCC4)n3)ccc21
- photoluminescence quantum yield (in C1CCOC1): 0.15
- photoluminescence quantum yield (in CCOC(C)=O): 0.14
- photoluminescence quantum yield (in CN(C)C=O): 0.17
- photoluminescence quantum yield (in Cc1ccccc1): 0.16
- photoluminescence quantum yield (in ClCCl): 0.15

SMILES: CCN1c2ccc(/C=N/Nc3ccccn3)cc2Sc2cc(-c3ccc(OC)cc3)ccc21
- photoluminescence quantum yield (in C1CCOC1): 0.32
- photoluminescence quantum yield (in CS(C)=O): 0.55
- photoluminescence quantum yield (in Cc1ccccc1): 0.16
- photoluminescence quantum yield (in ClCCl): 0.38

SMILES: CCOC(=O)/C=C/C1=C(c2ccc(C)cc2)C2=Nc3c(-c4ccc(C)cc4)c(Br)c(-c4ccc(C)cc4)n3[B-](F)(F)[N+]2=C1c1ccc(C)cc1
- photoluminescence quantum yield (in ClC(Cl)Cl): 0.03

SMILES: O=C(O)CCCc1cc(C#Cc2ccccc2)c2ccc3c(C#Cc4ccccc4)cc(C#Cc4ccccc4)c4ccc1c2c34
- photoluminescence quantum yield (in CS(C)=O): 0.72
- photoluminescence quantum yield (in ClC(Cl)(Cl)Cl): 0.56

SMILES: N#Cc1nn(-c2ccc(F)cc2)nc1N1CCCC1
- photoluminescence quantum yield (in CC#N): 0.683

SMILES: COC1(OC)C2(Cl)c3nc4cc(-c5cccs5)ccc4nc3C1(Cl)C1C[C@H]3[C@@H](CC12)C1(Cl)c2nc4ccc(-c5cccs5)cc4nc2C3(Cl)C1(OC)OC (some centres not stated)
- photoluminescence quantum yield (in CC#N): 0.57
- photoluminescence quantum yield (in CCOC(C)=O): 0.22
- photoluminescence quantum yield (in CO): 0.49
- photoluminescence quantum yield (in Cc1ccccc1): 0.13
- photoluminescence quantum yield (in ClC(Cl)Cl): 0.35
- photoluminescence quantum yield (in ClCCl): 0.33

SMILES: CCCCCCCCCCCCN1C(=O)c2cccc3c(N(Cc4ccccn4)Cc4ccccn4)c4ccccc4c(c23)C1=O
- photoluminescence quantum yield (in C1CCOC1): 0.07
- photoluminescence quantum yield (in CCCCCC): 0.06
- photoluminescence quantum yield (in CCO): 0.1
- photoluminescence quantum yield (in Cc1ccccc1): 0.06
- photoluminescence quantum yield (in ClCCl): 0.12

SMILES: CCN(CC)c1ccc(/C=N/CC/N=C/c2ccc(N(CC)CC)cc2O)c(O)c1
- photoluminescence quantum yield (in CC#N): 0.13

SMILES: F[B-]1(F)Oc2ccccc2-c2cc(-n3c4ccccc4c4ccccc43)cc[n+]21
- photoluminescence quantum yield (in O=P(c1ccccc1)(c1ccccc1)c1ccccc1Oc1ccccc1P(=O)(c1ccccc1)c1ccccc1): 0.99

SMILES: c1cc2ccc3ccc4cc3c2cc1c1ccc2c(c1)c1cc(ccc1[C@]13OCCO[C@]21OCCO3)c1ccc2c(c1)c1cc4ccc1[C@]13OCCO[C@]21OCCO3
- photoluminescence quantum yield (in Cc1ccccc1): 0.63

SMILES: Oc1ccccc1-c1nc2c3ccccc3c3ccccc3c2n1-c1ccccc1
- photoluminescence quantum yield (in Cc1ccccc1): 0.001

SMILES: O=S(=O)([O-])c1ccccc1/C=C/c1ccc(-c2nnc(-c3ccc(/C=C/c4ccccc4S(=O)(=O)[O-])cc3)o2)cc1
- photoluminescence quantum yield (in C1CCOC1): 0.22
- photoluminescence quantum yield (in CC(C)=O): 0.17
- photoluminescence quantum yield (in CN(C)C=O): 0.75

SMILES: FC(F)(F)c1ccc(-n2c(-c3ccc(N(c4ccc(-c5ccc(N(c6ccc(-c7nc8c9ccccc9c9ccccc9c8n7-c7ccc(C(F)(F)F)cc7)cc6)c6ccc(-c7nc8c9ccccc9c9ccccc9c8n7-c7ccc(C(F)(F)F)cc7)cc6)cc5)cc4)c4ccc(-c5nc6c7ccccc7c7ccccc7c6n5-c5ccc(C(F)(F)F)cc5)cc4)cc3)nc3c4ccccc4c4ccccc4c32)cc1
- photoluminescence quantum yield (in ClCCl): 0.383

Results, then the molecule that gave them:

- photoluminescence quantum yield (in ClC(Cl)Cl): 0.96
SMILES: COc1ccc(-c2oc3cccc4c5c(-c6ccc(OC)cc6)/c(=N/S(=O)(=O)C(F)(F)F)oc6cccc(c2c34)c65)cc1

- photoluminescence quantum yield (in CC#N): 0.77
- photoluminescence quantum yield (in CS(C)=O): 0.72
- photoluminescence quantum yield (in ClC(Cl)Cl): 0.66
SMILES: C#CCn1c2ccccc2c2cc(/C=C/c3cc(C)c4n3[B-](F)(F)[N+]3=C(C)C=C(C)C3=C4c3ccc(I)cc3)ccc21

- photoluminescence quantum yield (in ClCCl): 0.035
SMILES: c1ccc(-c2cc3cc4ccccc4cc3p2-c2ccccc2)cc1 (configuration not stated)

- photoluminescence quantum yield (in ClCCl): 0.2
SMILES: Cc1cc2cc(C)c3c4ccccc4[nH]c3c2o1

- photoluminescence quantum yield (in c1cc(-n2c3ccccc3c3ccccc32)cc(-n2c3ccccc3c3ccccc32)c1): 0.15
SMILES: O=C(c1ccccc1)c1cc2ccc1CCc1ccc(c(-c3ccc(N(c4ccccc4)c4ccccc4)cc3)c1)CC2

- photoluminescence quantum yield (in CS(C)=O): 0.16
SMILES: COc1ccc2oc(-c3cc4cc(OC)ccc4oc3=O)cc2c1

- photoluminescence quantum yield (in ClCCl): 0.51
SMILES: COc1ccc2cc(/C=C/C3=[O+][B-](F)(F)OC(/C=C/c4ccc5cc(OC)ccc5c4)=C3c3ccccc3)ccc2c1

- photoluminescence quantum yield (in ClCCl): 0.11
SMILES: CC1(C)c2ccccc2-c2sc3ccccc3c21

- photoluminescence quantum yield (in CC#N): 0.645
- photoluminescence quantum yield (in CCCCCC): 0.51
- photoluminescence quantum yield (in CO): 0.214
- photoluminescence quantum yield (in ClC(Cl)Cl): 0.627
SMILES: c1cc2ccc3cccc4c(-c5cc(-c6nccs6)nc(-c6nccs6)c5)cc(c1)c2c34

- photoluminescence quantum yield (in CS(C)=O): 0.84
SMILES: c1cnc2c(c1)c1nc(-c3ccc(-c4nc5c6cccnc6c6ncccc6c5[nH]4)cc3)[nH]c1c1cccnc12
